ChEMBL document CHEMBL3351663, “Discovery of acylurea isosteres of 2-acylaminothiadiazole in the azaxanthene series of glucocorticoid receptor agonists” (Bioorg Med Chem Lett, 2014)

Tests used:
Estrogen receptor = molecular target: T1, Estrogen receptor (Homo sapiens, UniProt P03372); assay: Binding affinity to estrogen receptor-alpha (unknown origin)
T1 sequence (P03372 whole entry): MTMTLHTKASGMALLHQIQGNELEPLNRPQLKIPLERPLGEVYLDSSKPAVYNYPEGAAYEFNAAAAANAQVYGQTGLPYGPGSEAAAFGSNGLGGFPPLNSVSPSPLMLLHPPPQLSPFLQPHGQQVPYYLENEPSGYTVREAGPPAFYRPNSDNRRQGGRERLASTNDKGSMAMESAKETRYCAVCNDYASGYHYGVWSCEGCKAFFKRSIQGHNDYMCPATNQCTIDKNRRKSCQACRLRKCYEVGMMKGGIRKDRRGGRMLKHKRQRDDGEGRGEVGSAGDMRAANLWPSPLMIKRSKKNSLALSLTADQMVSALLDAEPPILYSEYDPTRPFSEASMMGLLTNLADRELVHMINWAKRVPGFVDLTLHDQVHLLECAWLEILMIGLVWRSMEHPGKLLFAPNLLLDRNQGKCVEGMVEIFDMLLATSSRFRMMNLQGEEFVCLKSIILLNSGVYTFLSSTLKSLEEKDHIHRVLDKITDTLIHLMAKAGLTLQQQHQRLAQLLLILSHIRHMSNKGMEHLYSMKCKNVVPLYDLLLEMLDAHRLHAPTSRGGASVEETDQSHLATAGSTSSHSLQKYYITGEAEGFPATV

Glucocorticoid receptor = molecular target: T2, Glucocorticoid receptor (Homo sapiens, UniProt P04150); assay: Agonist activity at glucocorticoid receptor in human A549 cells assessed as E-selectin transrepression by luciferase reporter gene assay; assay type: cell-based
T2 sequence (P04150 whole entry): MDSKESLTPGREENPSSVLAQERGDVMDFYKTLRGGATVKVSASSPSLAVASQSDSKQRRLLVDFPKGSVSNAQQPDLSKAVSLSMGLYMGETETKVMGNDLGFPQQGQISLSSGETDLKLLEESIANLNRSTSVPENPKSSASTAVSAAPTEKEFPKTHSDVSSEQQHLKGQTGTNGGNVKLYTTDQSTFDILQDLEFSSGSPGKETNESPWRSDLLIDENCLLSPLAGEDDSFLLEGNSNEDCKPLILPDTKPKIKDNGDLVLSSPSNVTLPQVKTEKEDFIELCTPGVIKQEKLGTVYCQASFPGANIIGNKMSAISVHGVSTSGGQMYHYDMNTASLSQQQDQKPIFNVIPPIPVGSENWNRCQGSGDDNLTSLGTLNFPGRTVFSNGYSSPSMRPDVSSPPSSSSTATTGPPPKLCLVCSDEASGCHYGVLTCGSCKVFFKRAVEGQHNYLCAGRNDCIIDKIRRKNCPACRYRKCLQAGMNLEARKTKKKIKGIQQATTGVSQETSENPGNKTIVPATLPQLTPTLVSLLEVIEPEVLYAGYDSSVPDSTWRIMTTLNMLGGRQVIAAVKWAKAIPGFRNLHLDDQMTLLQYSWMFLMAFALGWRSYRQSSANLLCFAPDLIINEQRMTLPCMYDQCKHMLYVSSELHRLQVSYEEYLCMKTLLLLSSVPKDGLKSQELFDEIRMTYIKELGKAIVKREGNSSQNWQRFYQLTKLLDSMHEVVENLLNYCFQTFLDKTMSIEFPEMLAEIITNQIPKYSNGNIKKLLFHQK

Cytochrome P450 3A4 = Cytochrome P450 3A4 (Homo sapiens, UniProt P08684); assay: Inhibition of CYP3A4 (unknown origin); assay type: ADME
Sequence of Cytochrome P450 3A4 (P08684 whole entry): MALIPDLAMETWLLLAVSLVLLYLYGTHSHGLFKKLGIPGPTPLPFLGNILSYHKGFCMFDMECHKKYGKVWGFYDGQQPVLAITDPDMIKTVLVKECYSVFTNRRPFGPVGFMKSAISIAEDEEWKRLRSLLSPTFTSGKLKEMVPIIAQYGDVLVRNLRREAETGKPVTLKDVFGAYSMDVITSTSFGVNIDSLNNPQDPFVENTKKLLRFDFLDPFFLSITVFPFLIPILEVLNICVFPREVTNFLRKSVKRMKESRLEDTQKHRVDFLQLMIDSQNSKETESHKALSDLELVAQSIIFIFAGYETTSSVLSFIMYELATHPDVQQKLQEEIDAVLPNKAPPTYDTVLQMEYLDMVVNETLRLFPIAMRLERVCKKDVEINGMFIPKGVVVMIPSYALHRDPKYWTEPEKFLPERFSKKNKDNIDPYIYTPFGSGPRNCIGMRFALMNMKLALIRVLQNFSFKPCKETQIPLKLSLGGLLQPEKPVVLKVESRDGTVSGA

Cytochrome P450 2C19 = Cytochrome P450 2C19 (Homo sapiens, UniProt P33261); assay: Inhibition of CYP2C19 (unknown origin); assay type: ADME
Sequence of Cytochrome P450 2C19 (P33261 whole entry): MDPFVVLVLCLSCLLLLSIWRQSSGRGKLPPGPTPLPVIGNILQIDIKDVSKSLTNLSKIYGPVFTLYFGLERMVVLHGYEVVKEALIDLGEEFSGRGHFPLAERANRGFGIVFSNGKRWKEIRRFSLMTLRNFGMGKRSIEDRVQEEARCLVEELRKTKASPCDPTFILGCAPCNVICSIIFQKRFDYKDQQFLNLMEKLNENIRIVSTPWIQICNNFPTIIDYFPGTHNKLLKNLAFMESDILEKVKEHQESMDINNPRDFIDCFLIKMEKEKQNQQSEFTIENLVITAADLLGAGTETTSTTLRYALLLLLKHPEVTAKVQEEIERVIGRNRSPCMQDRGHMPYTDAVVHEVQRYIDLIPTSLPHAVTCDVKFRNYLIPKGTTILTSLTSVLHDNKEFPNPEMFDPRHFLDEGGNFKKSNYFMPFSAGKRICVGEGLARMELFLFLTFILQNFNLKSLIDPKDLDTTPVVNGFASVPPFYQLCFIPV

Liver microsome [1] = assay: Metabolic stability in human liver microsomes assessed as compound remaining
Liver microsome [2] = assay: Metabolic stability in rat liver microsomes assessed as compound remaining
Liver = assay: Metabolic stability in mouse liver microsomes assessed as compound remaining

| Ki (Estrogen receptor) [nM] | EC50 (Glucocorticoid receptor) [nM] | IC50 (Cytochrome P450 3A4) [nM] | IC50 (Cytochrome P450 2C19) [nM] | Stability (Liver microsome [1]) [%] | Stability (Liver microsome [2]) [%] | Stability (Liver) [%] | Structure (SMILES) |
| --- | --- | --- | --- | --- | --- | --- | --- |
| > 75000 | 1.2 | > 40000 | 11000 | 83 | 90 | 80 | CC(C)(C(=O)NC(N)=O)[C@@H]1c2ccc(-c3ccc(C(=O)N4CCOCC4)cc3)nc2Oc2c(F)cccc21 |
| > 75000 | – | 300 | 1300 | – | – | – | CC(C)(C(=O)Nc1nncs1)[C@@H]1c2ccc(-c3ccc(C(=O)N4CCOCC4)cc3)nc2Oc2c(F)cccc21 |
